Key:
[1] = Ratio of free drug level in plasma to brain in Sprague-Dawley rat at 1 mg/kg, sc administration at 30 mins; type: ADME, organism-based; settings: in vivo, 0.5 h
[2] = Ratio of free drug level in plasma to brain in Sprague-Dawley rat at 10 mg/kg, sc administration at 30 mins; type: ADME, organism-based; settings: in vivo, 0.5 h
Brain [3] = test: Fraction unbound in Sprague-Dawley rat brain at 3 mg/kg, po administered at 60 mins by LC-MS/MS analysis; type: ADME, organism-based; settings: in vivo, 1 h
Plasma [4] = test: Unbound plasma concentration in Sprague-Dawley rat at 1 mg/kg, sc administered at 30 mins by LC-MS/MS analysis; type: ADME, organism-based; settings: in vivo, 0.5 h
Brain [5] = test: Fraction unbound in Sprague-Dawley rat brain at 10 mg/kg, po administered at 60 mins by LC-MS/MS analysis; type: ADME, organism-based; settings: in vivo, 1 h
Brain [6] = test: Fraction unbound in Sprague-Dawley rat brain at 30 mg/kg, sc administered at 30 mins by LC-MS/MS analysis; type: ADME, organism-based; settings: in vivo, 0.5 h
[7] = Activation of rat Kv7.3/7.5 expressed in CHOK1 cells; type: cell-based; settings: CHO-K1
[8] = Intrinsic clearance in human liver microsomes measured over 1 hr in presence of NADPH regenerating system; type: ADME; settings: read-out: CLH
[9] = target: Voltage-gated potassium channel, IKs; KCNQ1(Kv7.1)/KCNE1(MinK) (Homo sapiens, UniProt P51787+P15382); test: Activation of human Kv7.1/KCNE1 expressed in CHOK1 cells assessed as increase in current amplitude relative to control; type: cell-based; settings: cho-k1
Sequence of Voltage-gated potassium channel, IKs; KCNQ1(Kv7.1)/KCNE1(MinK) (Homo sapiens, UniProt P51787+P15382) (P51787 whole entry): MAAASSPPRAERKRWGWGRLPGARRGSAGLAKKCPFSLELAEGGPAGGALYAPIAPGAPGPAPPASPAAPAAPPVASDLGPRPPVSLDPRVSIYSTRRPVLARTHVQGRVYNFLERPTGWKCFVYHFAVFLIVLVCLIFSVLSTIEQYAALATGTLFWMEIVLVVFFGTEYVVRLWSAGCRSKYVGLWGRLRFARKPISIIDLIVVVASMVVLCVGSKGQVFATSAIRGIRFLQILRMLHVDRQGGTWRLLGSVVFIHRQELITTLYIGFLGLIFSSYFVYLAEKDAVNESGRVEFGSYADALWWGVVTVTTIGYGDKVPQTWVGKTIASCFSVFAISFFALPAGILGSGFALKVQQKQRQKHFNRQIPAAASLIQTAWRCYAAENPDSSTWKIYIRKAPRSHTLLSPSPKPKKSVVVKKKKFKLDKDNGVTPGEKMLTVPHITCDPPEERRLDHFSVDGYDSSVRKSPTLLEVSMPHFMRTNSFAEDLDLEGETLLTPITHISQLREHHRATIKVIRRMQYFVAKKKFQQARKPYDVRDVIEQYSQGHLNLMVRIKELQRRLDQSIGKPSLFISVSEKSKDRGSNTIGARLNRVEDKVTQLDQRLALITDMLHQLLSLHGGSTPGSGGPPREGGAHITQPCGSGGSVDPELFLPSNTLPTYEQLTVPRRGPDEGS

CHO-K1 = test: Activation of rat Kv7.3/7.5 expressed in CHOK1 cells assessed as increase in current amplitude relative to control; type: cell-based
[10] = target: Voltage-gated potassium channel, IKs; KCNQ1(Kv7.1)/KCNE1(MinK) (Homo sapiens, UniProt P15382+P51787); test: Activation of human Kv7.1/KCNE1 expressed in CHOK1 cells; type: cell-based, CHO-K1
Sequence of Voltage-gated potassium channel, IKs; KCNQ1(Kv7.1)/KCNE1(MinK) (Homo sapiens, UniProt P15382+P51787) (P51787 whole entry): as the sequence (P51787 whole entry) above

Rattus norvegicus [11] = test: Anticonvulsant activity in Sprague-Dawley rat assessed as protection against maximal electroshock-induced convulsion at 30 mg/kg, po administered 60 mins prior to application of shock via corneal electrodes relative to control; type: functional
Plasma [12] = test: Unbound plasma concentration in Sprague-Dawley rat at 1 mg/kg, po administered at 60 mins by LC-MS/MS analysis; type: ADME, organism-based; settings: in vivo, 1 h
Plasma [13] = test: Unbound plasma concentration in Sprague-Dawley rat at 10 mg/kg, po administered at 60 mins by LC-MS/MS analysis; type: ADME, organism-based; settings: in vivo, 1 h
[14] = target: T1, Potassium voltage-gated channel subfamily KQT member 4 (Homo sapiens) (UniProt P56696); test: Activation of human Kv7.4 expressed in CHOK1 cells assessed as increase in current amplitude relative to control; type: cell-based; settings: CHO-K1
T1 sequence (whole entry): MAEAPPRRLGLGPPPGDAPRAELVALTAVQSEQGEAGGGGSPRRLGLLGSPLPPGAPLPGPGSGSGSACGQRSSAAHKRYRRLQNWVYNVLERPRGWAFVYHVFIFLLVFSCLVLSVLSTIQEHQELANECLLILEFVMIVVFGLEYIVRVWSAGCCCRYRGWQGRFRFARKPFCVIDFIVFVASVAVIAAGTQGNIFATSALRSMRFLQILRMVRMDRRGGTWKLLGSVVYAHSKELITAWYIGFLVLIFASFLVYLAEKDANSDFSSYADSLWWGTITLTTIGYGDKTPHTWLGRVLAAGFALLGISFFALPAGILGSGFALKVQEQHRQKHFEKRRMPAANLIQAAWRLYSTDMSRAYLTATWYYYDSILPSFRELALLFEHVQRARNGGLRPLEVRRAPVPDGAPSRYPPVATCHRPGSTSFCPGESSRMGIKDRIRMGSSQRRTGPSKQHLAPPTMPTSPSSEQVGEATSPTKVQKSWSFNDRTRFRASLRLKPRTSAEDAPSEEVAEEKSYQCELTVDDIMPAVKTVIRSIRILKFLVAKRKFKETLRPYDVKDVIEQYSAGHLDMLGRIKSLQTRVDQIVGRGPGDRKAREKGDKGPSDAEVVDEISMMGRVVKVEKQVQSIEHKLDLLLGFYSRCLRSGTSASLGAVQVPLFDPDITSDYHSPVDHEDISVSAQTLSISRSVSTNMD

[15] = Fraction unbound in rat brain by equilibrium dialysis method; type: ADME, tissue-based
[16] = Ratio of free drug level in plasma to brain in Sprague-Dawley rat at 1 mg/kg, po administration at 60 mins; type: ADME, organism-based; settings: in vivo, 1 h
[17] = target: T2, Voltage-gated potassium channel KCNQ3/KCNQ5 (Homo sapiens, UniProt O43525+Q9NR82); test: Activation of human Kv7.3/7.5 expressed in CHOK1 cells assessed as increase in current amplitude relative to control; type: cell-based; settings: CHO-K1
T2 sequence (O43525 whole entry): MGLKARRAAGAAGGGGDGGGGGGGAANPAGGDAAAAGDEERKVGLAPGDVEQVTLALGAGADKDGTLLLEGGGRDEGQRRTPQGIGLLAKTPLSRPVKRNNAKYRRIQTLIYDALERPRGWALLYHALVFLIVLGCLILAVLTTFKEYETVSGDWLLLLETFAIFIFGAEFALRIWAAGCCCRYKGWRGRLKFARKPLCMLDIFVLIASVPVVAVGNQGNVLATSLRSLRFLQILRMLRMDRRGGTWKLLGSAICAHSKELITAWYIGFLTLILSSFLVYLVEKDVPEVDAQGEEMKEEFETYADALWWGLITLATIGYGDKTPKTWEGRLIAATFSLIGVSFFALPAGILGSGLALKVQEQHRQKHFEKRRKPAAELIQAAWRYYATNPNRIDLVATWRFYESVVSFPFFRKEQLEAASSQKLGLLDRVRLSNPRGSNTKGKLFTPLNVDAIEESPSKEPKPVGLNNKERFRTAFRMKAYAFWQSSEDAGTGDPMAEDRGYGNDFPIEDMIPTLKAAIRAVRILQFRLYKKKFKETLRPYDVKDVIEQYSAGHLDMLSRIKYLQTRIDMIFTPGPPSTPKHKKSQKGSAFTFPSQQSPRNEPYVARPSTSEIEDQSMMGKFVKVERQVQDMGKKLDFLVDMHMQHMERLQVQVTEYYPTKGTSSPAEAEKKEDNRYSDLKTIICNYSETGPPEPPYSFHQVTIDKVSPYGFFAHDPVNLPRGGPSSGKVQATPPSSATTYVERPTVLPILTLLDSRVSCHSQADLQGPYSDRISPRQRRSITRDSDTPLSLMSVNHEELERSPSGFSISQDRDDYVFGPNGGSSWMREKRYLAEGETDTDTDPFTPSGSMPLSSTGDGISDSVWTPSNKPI
T2 sequence (Q9NR82 whole entry): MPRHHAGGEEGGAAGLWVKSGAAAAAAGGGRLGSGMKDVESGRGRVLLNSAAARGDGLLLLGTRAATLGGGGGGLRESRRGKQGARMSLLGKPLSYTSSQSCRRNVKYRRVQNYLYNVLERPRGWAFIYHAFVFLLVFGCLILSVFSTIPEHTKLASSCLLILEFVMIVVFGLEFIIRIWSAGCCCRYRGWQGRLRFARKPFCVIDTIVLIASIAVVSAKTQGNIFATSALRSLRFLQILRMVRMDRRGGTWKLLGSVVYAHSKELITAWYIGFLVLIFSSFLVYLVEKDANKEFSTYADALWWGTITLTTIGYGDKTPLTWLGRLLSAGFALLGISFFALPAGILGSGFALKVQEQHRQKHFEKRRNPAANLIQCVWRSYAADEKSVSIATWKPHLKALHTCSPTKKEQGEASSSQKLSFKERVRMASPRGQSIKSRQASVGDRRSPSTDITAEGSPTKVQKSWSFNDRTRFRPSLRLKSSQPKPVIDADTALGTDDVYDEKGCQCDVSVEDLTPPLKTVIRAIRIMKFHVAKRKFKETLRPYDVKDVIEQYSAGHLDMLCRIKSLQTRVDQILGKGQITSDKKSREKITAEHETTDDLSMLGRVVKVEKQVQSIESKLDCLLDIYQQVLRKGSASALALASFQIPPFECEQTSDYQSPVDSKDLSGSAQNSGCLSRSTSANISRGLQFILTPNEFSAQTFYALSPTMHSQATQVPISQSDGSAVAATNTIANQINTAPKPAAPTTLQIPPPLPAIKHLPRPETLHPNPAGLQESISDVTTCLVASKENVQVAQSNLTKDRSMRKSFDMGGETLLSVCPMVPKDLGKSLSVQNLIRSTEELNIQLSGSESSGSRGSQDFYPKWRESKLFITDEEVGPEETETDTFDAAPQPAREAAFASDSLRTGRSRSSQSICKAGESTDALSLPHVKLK

MDCK = test: Efflux ratio of permeability from basolateral to apical over apical to basolateral side in MDCK cells transfected with MDR1; type: ADME, cell-based, Canis lupus familiaris; settings: dog
Rattus norvegicus [18] = test: Anticonvulsant activity in Sprague-Dawley rat assessed as protection against maximal electroshock-induced convulsion at 30 mg/kg, sc administered 30 mins prior to application of shock via corneal electrodes relative to control; type: functional
[19] = target: T3, Voltage-gated potassium channel, KQT; KCNQ2(Kv7.2)/KCNQ3(Kv7.3) (Homo sapiens) (UniProt O43526+O43525); test: Activation of human Kv7.2/7.3 expressed in CHOK1 cells assessed as increase in current amplitude relative to control; type: cell-based; settings: CHO-K1
Plasma [20] = test: Unbound plasma concentration in Sprague-Dawley rat at 3 mg/kg, sc administered at 30 mins by LC-MS/MS analysis; type: ADME, organism-based; settings: in vivo, 0.5 h
Rattus norvegicus [21] = test: Anticonvulsant activity in sc dosed Sprague-Dawley rat assessed as protection against maximal electroshock-induced convulsion administered 30 mins prior to application of shock via corneal electrodes; type: functional, organism-based
Brain [22] = test: Fraction unbound in Sprague-Dawley rat brain at 3 mg/kg, sc administered at 30 mins by LC-MS/MS analysis; type: ADME, organism-based; settings: in vivo, 0.5 h
[23] = Permeability in dog RRCK cells after 2 hrs by transwell assay; type: ADME, cell-based, Canis lupus familiaris, MDCKII-LE; settings: mdck, read-out: permeability
[24] = Ratio of free drug level in plasma to brain in Sprague-Dawley rat at 3 mg/kg, sc administration at 30 mins; type: ADME, organism-based; settings: in vivo, 0.5 h
[25] = target: T3, Voltage-gated potassium channel, KQT; KCNQ2(Kv7.2)/KCNQ3(Kv7.3) (Homo sapiens); test: (§1) Activation of human Kv7.2/7.3 expressed in CHOK1 cells; type: cell-based; settings: CHO-K1
[26] = target: Voltage-gated potassium channel, KQT; KCNQ2(Kv7.2)/KCNQ3(Kv7.3) (Homo sapiens, UniProt O43525+O43526); test: as §1; type: cell-based, CHO-K1
Sequence of Voltage-gated potassium channel, KQT; KCNQ2(Kv7.2)/KCNQ3(Kv7.3) (O43526 whole entry): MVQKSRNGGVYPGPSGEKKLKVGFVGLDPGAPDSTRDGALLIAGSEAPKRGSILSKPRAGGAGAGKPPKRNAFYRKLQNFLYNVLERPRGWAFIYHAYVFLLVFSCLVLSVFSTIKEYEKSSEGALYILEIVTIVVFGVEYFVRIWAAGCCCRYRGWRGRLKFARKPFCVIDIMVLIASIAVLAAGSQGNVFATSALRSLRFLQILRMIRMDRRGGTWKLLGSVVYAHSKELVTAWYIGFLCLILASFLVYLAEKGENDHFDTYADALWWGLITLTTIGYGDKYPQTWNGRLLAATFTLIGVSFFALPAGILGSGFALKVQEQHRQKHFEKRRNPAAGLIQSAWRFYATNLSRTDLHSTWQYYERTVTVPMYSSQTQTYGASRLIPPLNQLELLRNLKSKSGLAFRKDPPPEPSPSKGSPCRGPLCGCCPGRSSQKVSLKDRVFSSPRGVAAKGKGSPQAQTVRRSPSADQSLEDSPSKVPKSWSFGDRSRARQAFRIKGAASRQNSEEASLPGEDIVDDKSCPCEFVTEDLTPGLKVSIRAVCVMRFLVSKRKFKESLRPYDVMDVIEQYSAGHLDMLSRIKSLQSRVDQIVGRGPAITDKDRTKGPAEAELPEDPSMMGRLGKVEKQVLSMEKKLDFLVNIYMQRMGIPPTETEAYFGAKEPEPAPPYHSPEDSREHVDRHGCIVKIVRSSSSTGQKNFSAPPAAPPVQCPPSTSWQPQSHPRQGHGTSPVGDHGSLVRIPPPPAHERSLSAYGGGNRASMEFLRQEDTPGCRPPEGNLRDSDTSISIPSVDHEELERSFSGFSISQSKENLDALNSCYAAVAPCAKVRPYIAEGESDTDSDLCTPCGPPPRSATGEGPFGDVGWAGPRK
Sequence of Voltage-gated potassium channel, KQT; KCNQ2(Kv7.2)/KCNQ3(Kv7.3) (O43525 whole entry): as the sequence (O43525 whole entry) above

[27] = Ratio of free drug level in plasma to brain in Sprague-Dawley rat at 30 mg/kg, sc administration at 30 mins; type: ADME, organism-based; settings: in vivo, 0.5 h
[28] = Ratio of free drug level in plasma to brain in Sprague-Dawley rat at 10 mg/kg, po administration at 60 mins; type: ADME, organism-based; settings: in vivo, 1 h
Brain [29] = test: Fraction unbound in Sprague-Dawley rat brain at 10 mg/kg, sc administered at 30 mins by LC-MS/MS analysis; type: ADME, organism-based; settings: in vivo, 0.5 h
[30] = target: T2, Voltage-gated potassium channel KCNQ3/KCNQ5; test: Activation of human Kv7.3/7.5 expressed in CHOK1 cells; type: cell-based, CHO-K1

In the case of `COc1nc(N2CCC(OC)CC2)nc(OC)c1NC(=O)CC(C)(C)C`, the Ratio [1] is reported as 0.57, the Ratio [2] is reported as 0.59 and the “Drug uptake(free)” value (Brain [3]) is reported as 43 nM. For the same compound, the “Cp(f)” value (Plasma [4]) was 58 nM, the “Drug uptake(free)” value (Brain [5]) was 83 nM and the “Drug uptake(free)” value (Brain [6]) was 167 nM. The EC50 [7] was 1330 nM, the CLint scaled [8] was 15.6 mL/min/kg and the Activity [9] was 84%. The Activity (CHO-K1) was 207%, the EC50 [10] was > 100 µM and the Activity (Rattus norvegicus [11]) was 100%. For the same compound, the “Cp(f)” value (Plasma [12]) was 15 nM, the “Cp(f)” value (Plasma [13]) was 225 nM and the Activity [14] was 163%. For the same compound, the fraction unbound [15] was 0.13, the Ratio [16] was 0.42 and the Activity [17] was 246%. For the same compound, the Ratio (MDCK) was 1.25, the Activity (Rattus norvegicus [18]) was 100% and the Activity [19] was 265%. The “Cp(f)” value (Plasma [20]) was 151 nM, the Activity (Rattus norvegicus [21]) was “Dose-dependent effect” and the “Drug uptake(free)” value (Brain [22]) was 90 nM. For the same compound, the Papp at 2 h [23] was 24.9 ×10⁻⁶ cm/s, the Ratio [24] was 0.59 and the max activation [25] was 147%. The EC50 [26] was 334 nM, the Ratio [27] was 0.55 and the Ratio [28] was 0.37. For the same compound, the “Drug uptake(free)” value (Brain [29]) was 125 nM and the EC50 [30] was 588 nM.

— ChEMBL document CHEMBL3621090, “Discovery of a novel Kv7 channel opener as a treatment for epilepsy” (Bioorg Med Chem Lett, 2015)
